± gives the standard deviation of the averaged measurements.
What was measured:
Test in all cases: control-subtracted net OSN firing rate; higher = stronger neuronal activation
Canton-S pb1a = test system: Canton-S pb1a
Protocol: (§1)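 Dose-response single sensillum recordings from pb1a (D. melanogaster Canton-S) and pb1a-like (Scaptomyza) maxillary palp OSNs. Odorants were given at 10^-5 to 10^-2 vol/vol in mineral oil (γ-hexalactone in DMSO) as 1 s pulses. The read-out is the control-subtracted net spikes/s in a 0.5 s window.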

S. flava pb1a-like = test system: S. flava pb1a-like
Protocol: as §1

S. hsui pb1a-like = test system: S. hsui pb1a-like
Protocol: as §1

S. montana pb1a-like = test system: S. montana pb1a-like
Protocol: as §1

S. pallida pb1a-like = test system: S. pallida pb1a-like
Protocol: as §1

[1] = odorant dilution (vol/vol): 10^-2
[2] = odorant dilution (vol/vol): 10^-3
[3] = odorant dilution (vol/vol): 10^-4
[4] = odorant dilution (vol/vol): 10^-5

SMILES | control-subtracted net OSN firing rate (Canton-S pb1a; [1]) [spikes/s] | control-subtracted net OSN firing rate (Canton-S pb1a; [2]) [spikes/s] | control-subtracted net OSN firing rate (Canton-S pb1a; [3]) [spikes/s] | control-subtracted net OSN firing rate (Canton-S pb1a; [4]) [spikes/s] | control-subtracted net OSN firing rate (S. flava pb1a-like; [1]) [spikes/s] | control-subtracted net OSN firing rate (S. flava pb1a-like; [2]) [spikes/s] | control-subtracted net OSN firing rate (S. flava pb1a-like; [3]) [spikes/s] | control-subtracted net OSN firing rate (S. flava pb1a-like; [4]) [spikes/s] | control-subtracted net OSN firing rate (S. hsui pb1a-like; [1]) [spikes/s] | control-subtracted net OSN firing rate (S. hsui pb1a-like; [2]) [spikes/s] | control-subtracted net OSN firing rate (S. hsui pb1a-like; [3]) [spikes/s] | control-subtracted net OSN firing rate (S. hsui pb1a-like; [4]) [spikes/s] | control-subtracted net OSN firing rate (S. montana pb1a-like; [1]) [spikes/s] | control-subtracted net OSN firing rate (S. montana pb1a-like; [2]) [spikes/s] | control-subtracted net OSN firing rate (S. montana pb1a-like; [3]) [spikes/s] | control-subtracted net OSN firing rate (S. montana pb1a-like; [4]) [spikes/s] | control-subtracted net OSN firing rate (S. pallida pb1a-like; [1]) [spikes/s] | control-subtracted net OSN firing rate (S. pallida pb1a-like; [2]) [spikes/s] | control-subtracted net OSN firing rate (S. pallida pb1a-like; [3]) [spikes/s] | control-subtracted net OSN firing rate (S. pallida pb1a-like; [4]) [spikes/s]
C=CCN=C=S [allyl isothiocyanate] | 153 ± 42 | 27 ± 7.3 | 2 ± 5.9 | -3.33 ± 5 | 169 ± 40 | 117 ± 38 | 50 ± 28 | 11.4 ± 14 | 132 ± 49 | 51.2 ± 27 | 6.75 ± 6 | -1 ± 12 | 168 ± 26 | 118 ± 33 | 58.3 ± 35 | 20 ± 9.4 | 142 ± 25 | 115 ± 44 | 33.8 ± 19 | 5.56 ± 14
CCCCN=C=S [butyl isothiocyanate] | – | – | – | – | 146 ± 29 | 65.7 ± 36 | 21.7 ± 10 | -4 ± 10 | – | – | – | – | 124 ± 14 | 42.3 ± 22 | 10 ± 14 | 0.667 ± 9.1 | – | – | – | –
CCCC(=O)OCC [ethyl butyrate] | 211 ± 10 | 209 ± 12 | 76.3 ± 41 | 12.9 ± 4.5 | 208 ± 60 | 170 ± 59 | 52.8 ± 54 | 2 ± 7.4 | 150 ± 38 | 118 ± 43 | 46 ± 21 | 11 ± 22 | 236 ± 60 | 150 ± 70 | 42.5 ± 25 | 7.5 ± 3.5 | 142 ± 26 | 135 ± 24 | 111 ± 39 | 20.2 ± 19
CC(C)CN=C=S [isobutyl isothiocyanate] | – | – | – | – | 179 ± 22 | 93 ± 16 | 23.3 ± 7.5 | 5.67 ± 4.6 | – | – | – | – | 164 ± 20 | 84.7 ± 14 | 17.3 ± 5.9 | 2 ± 5.8 | – | – | – | –
CCC(C)N=C=S (centres undefined) [sec-butyl isothiocyanate] | – | – | – | – | 76.6 ± 22 | 19.7 ± 11 | 3.14 ± 6.4 | -2.57 ± 5.9 | – | – | – | – | 72.7 ± 9.3 | 13.3 ± 9.4 | -0.667 ± 7.1 | 0.667 ± 4.8 | – | – | – | –
CCC/C=C/C=O [trans-2-hexenal] | 121 ± 35 | 34.7 ± 14 | 5 ± 3.5 | -3 ± 6.4 | 169 ± 30 | 159 ± 33 | 136 ± 33 | 58.6 ± 19 | 130 ± 48 | 55.7 ± 31 | 9 ± 11 | 2.67 ± 11 | 187 ± 11 | 156 ± 23 | 72 ± 19 | 26.7 ± 4.8 | 145 ± 31 | 119 ± 40 | 26.4 ± 24 | 5.78 ± 13
CCC1CCC(=O)O1 (centres undefined) [γ-hexalactone] | 286 ± 56 | 217 ± 84 | 33 ± 18 | 22.7 ± 15 | 182 ± 37 | 42.6 ± 26 | 3.14 ± 9.9 | -3.43 ± 8 | 163 ± 14 | 128 ± 14 | 53 ± 17 | 43.7 ± 11 | 186 ± 42 | 93.7 ± 28 | 21.3 ± 13 | -2 ± 9.8 | 152 ± 15 | 98.7 ± 50 | 34.3 ± 35 | 11.3 ± 15
